From PubChem BioAssay AID1190 (EPA DSSTox, 2008)
Calls of active or inactive are those of the source. The rule behind the calls is not given here.

Tested on: dog and primate chronic carcinogenicity bioassays, TD50
Assay: DSSTox (CPDBAS) Carcinogenic Potency Database Summary Dog & Primates Bioassay Results
Source text: The Carcinogenic Potency Database (CPDB) is a unique and widely used international resource of the results of over 6500 chronic, long-term animal cancer tests on over 1500 chemical substances. The CPDB provides easy access to the bioassay literature, with qualitative and quantitative analyses of both positive and negative experiments that have been published over the past 50 years in the general literature and by the National Cancer Institute/National Toxicology Program. The CPDB standardizes the diverse literature of cancer bioassays that vary widely in protocol, histopathological examination and nomenclature, and in the published author's choices of what information to provide in their papers. Results are reported in the CPDB for tests in rats, mice, hamsters, dogs, and nonhuman primates, and are based on the most positive result among all experiments for each sex-species. The DSSTox CPDBAS (all species) file incorporates data from the CPDB Summary Tables for the full list of over 1500 chemical substances tested in at least one species. Summary bioassay results for Dogs and Non-Human Primates (TD50, tumor sites) are provided in the CPDB Summary Tables and the DSSTox CPDBAS file for more than 30 chemical substances.
TD50 is a standardized quantitative measure of carcinogenic potency (analogous to an LD50) and is reported in the CPDB Summary Table for each species. Comments pertaining to the Dog or Primates (Cynomolgus, Rhesus, Bush Baby, Tree Shrew) TD50 (corresponding to footnote indices in the original CPDB Summary Table) are provided in the TD50_Dog_Primates_Note field. […] Target sites are reported for each species with a positive result in the CPDB on the basis of a positive author's opinion for the particular site and using all results from both the general literature and NCI/NTP bioassays. If a chemical has two or more target sites listed, the results may be from different experiments, and a single site may be a target organ in more than one experiment, as well. Blank entry in TargetSites field indicates no results reported.

SMILES	outcome	Potency [mg/kg/day]
Cn1cnc([N+](=O)[O-])c1Sc1ncnc2nc[nH]c12	inactive; no positive results	
CC(=O)Nc1ccc2c(c1)Cc1ccccc1-2	inactive; no positive results	
C/[N+]([O-])=N/CO[C@@H]1O[C@H](CO)[C@@H](O)[C@H](O)[C@H]1O		0.0657
CNNCc1ccc(C(=O)NC(C)C)cc1		4.21
Nc1ccc(-c2ccc(N)c(Cl)c2)cc1Cl	active	
Clc1ccc(C(c2ccc(Cl)cc2)C(Cl)(Cl)Cl)cc1	inactive; no positive results	
CCCN(CCC)N=O		0.0121
CN(N=O)C(N)=O		7.18
CCOC(N)=O		65.2
O=C1NS(=O)(=O)c2ccccc21	inactive; no positive results	
O=NN1CCCCC1		2.76
ClC(Cl)Cl	inactive	
Nc1ccc2ccccc2c1		5.74
O=P1(N(CCCl)CCCl)NCCCO1 (stereo unspecified)	inactive; no positive results	
Cc1cc(C)c(S(=O)(=O)O)cc1N=Nc1cc(S(=O)(=O)O)c2ccccc2c1O	inactive	
Cn1c(N)nc2c3cccnc3ccc21	active	

SMILES	outcome	Potency [mg/kg/day]
COc1cccc2c1C(=O)c1c(O)c3c(c(O)c1C2=O)C[C@@](O)(C(=O)CO)C[C@@H]3O[C@H]1C[C@H](N)[C@H](O)[C@H](C)O1	inactive; no positive results	
CN(C)N=O	inactive; no positive results	
Cc1ccc2cc3c(ccc4ccccc43)c3c2c1CC3	inactive; no positive results	
COc1cc2c(c3oc4cccc(O)c4c(=O)c13)C1C=COC1O2 (stereo unspecified)	active	
CCN(CC)N=O		0.0536
CC(=O)Nc1ccc2c(c1)Cc1cc(NC(C)=O)ccc1-2	inactive; no positive results	
N[C@@H](Cc1ccc(N(CCCl)CCCl)cc1)C(=O)O	active; no positive results	
C#C[C@@]1(O)CC[C@H]2[C@@H]3CCC4=CCCC[C@@H]4[C@H]3CC[C@@]21C	active	
COc1cc2c(c3oc(=O)c4c(c13)CCC4=O)C1C=COC1O2 (stereo unspecified)		0.0082
CN(C)c1ccc(N=Nc2ccccc2)cc1	inactive; no positive results	
Nc1ccc(Cc2ccc(N)c(Cl)c2)cc1Cl	active	
Cc1cccc(N=Nc2ccc(N(C)C)cc2)c1	inactive; no positive results	
O=S(=O)(O)NC1CCCCC1	inactive; no positive results	
O=[As](O)(O)O	inactive	
C#C[C@]1(OC(C)=O)CC[C@H]2[C@@H]3CCC4=CC(=O)CC[C@@H]4[C@H]3CC[C@@]21C	inactive; no positive results	
